IC50 data for 44 molecules are collected here from patent publication US20250026748A1, “N-(5-SUBSTITUTED-[(1,3,4-THIADIAZOLYL) OR (THIAZOLYL)])(SUBSTITUTED)CARBOXAMIDE COMPOUNDS AND USE THEREOF FOR INHIBITING HUMAN POLYMERASE THETA” (Repare Therapeutics Inc., priority 2021, published 2025).

Experiment [1] concerns the target Polθ ATPase enzyme (1-894) (Homo sapiens (Human), UniProt O75417). Description: Polθ ATPase enzymatic assay (3 nM enzyme concentration), ADP-Glo. It is filed as biochemical. Particulars: for IC50: read-out: IC50 (nM) [PolQ] 3 nM, average IC50, 3 nM PolQ ATPase enzyme (1-894). Here is the method:
Polθ ATPase enzyme (1-894) at 3 nM is incubated with a 10-point concentration response of inhibitors for 15 min at rt in the following buffer: 50 mM Tris Cl pH 7.5, 10% glycerol, 5 mM DTT, 10 mM MgCl2, 0.1 mg/ml BSA. Following pre-incubation with inhibitors, DNA (Fork C) at 20 nM and ATP at 100 μM are added to start the reaction. Enzymatic reaction proceeds at rt for 60 min. ATP consumption is measured using the ADP-Glo assay from Promega. Luminescence is read on the Envision and IC50 are determined using the variable slope 4-parameters equation.
DNA (Fork C) is made by annealing 3 different oligos containing the following sequence of nucleotides:
Oligos are annealed by heating at 95° C. for 5 min in the following buffer (10 mM Tris-HCl pH7.5, 50 mM NaCl, 1 mM EDTA) and cooled to rt. […]
(In general: In ADP-Glo the light output rises with the ADP produced.)

For experiment [2], the target named is PolQ ATPase enzyme (1-894) (Homo sapiens (Human), UniProt O75417). Description: Polθ ATPase enzymatic assay (0.5 nM enzyme concentration), ADP-Glo. The experiment is classed as biochemical. Particulars: average IC50; 0.5 nM PolQ ATPase enzyme (1-894). The procedure, abridged:
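Enzyme (0.5 nM) pre-incubated 15 min at rt with 10-point inhibitor series in 50 mM Tris pH 7.5, 10% glycerol, 5 mM DTT, 10 mM MgCl2, 0.1 mg/ml BSA; reaction started with 20 nM fork DNA and 100 μM ATP, run 180 min at rt. ADP-Glo luminescence; IC50 from 4-parameter variable-slope fit.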

pIC50: −log10 of the molar value. Read-outs that look alike come from different tables or passages of the source.

Sequence of Polθ ATPase enzyme (1-894) (O75417 1-894): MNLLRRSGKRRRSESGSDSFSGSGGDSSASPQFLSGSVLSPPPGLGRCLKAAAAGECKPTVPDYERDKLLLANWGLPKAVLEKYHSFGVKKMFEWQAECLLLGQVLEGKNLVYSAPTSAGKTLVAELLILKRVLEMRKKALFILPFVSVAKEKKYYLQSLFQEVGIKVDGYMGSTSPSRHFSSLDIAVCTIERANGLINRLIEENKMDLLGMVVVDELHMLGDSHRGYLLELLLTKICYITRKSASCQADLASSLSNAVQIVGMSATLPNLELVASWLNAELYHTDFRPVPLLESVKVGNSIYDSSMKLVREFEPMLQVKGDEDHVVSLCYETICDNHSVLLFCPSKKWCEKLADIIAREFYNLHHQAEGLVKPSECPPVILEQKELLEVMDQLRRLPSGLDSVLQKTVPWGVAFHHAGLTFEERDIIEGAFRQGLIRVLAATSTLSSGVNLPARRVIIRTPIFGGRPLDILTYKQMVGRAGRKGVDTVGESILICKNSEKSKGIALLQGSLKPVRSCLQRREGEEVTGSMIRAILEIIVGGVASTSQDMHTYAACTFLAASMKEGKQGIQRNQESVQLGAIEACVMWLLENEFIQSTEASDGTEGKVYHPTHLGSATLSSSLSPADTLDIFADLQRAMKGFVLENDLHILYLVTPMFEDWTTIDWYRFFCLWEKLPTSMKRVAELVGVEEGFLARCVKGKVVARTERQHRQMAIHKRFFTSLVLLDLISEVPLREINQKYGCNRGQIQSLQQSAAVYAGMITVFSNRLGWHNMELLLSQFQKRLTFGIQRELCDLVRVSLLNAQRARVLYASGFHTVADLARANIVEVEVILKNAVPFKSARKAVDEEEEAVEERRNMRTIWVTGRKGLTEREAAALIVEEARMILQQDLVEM
Sequence of PolQ ATPase enzyme (1-894) (O75417 1-894): as above

As usually defined, the pIC50 is the negative decadic logarithm of the IC50, by convention in mol/L. The low end stands for a large IC50, the high end for a small IC50. One may read the IC50 as the midpoint of a concentration-inhibition curve. `COc1ccc(C#N)cc1-c1cnccc1C(=O)Nc1nnc(C2C[C@H]2c2ccc(C#N)cc2)s1` (mixture of isomers) [Compound 2, N-(5-((1R,2R)-2-(4-cyanophenyl)cyclopropyl)-1,3,4-thiadiazol-2-yl)-3-(5-cyano-2-methoxyphenyl)isonicotinamide] showed a pIC50 in experiment [1] of 8.48. For the same molecule, 2.2 nM corresponded to half-maximal inhibition in experiment [2] (IC50).

Take `COc1ccc(F)cc1-c1cnccc1C(=O)Nc1nnc([C@@H]2C[C@H]2c2ccc(C#N)cc2)s1` [Compound 1, N-(5-((1R,2R)-2-(4-cyanophenyl)cyclopropyl)-1,3,4-thiadiazol-2-yl)-3-(5-fluoro-2-methoxyphenyl)isonicotinamide]: the IC50 was 5.8 nM in experiment [1] and 1.1 nM in experiment [2].

With `COc1ccc(F)cc1-c1cnccc1C(=O)Nc1nnc([C@@H]2C[C@H]2c2ccn(C)n2)s1` [Compound 3, 3-(5-fluoro-2-methoxyphenyl)-N-(5-((1R,2R)-2-(1-methyl-1H-pyrazol-3-yl)cyclopropyl)-1,3,4-thiadiazol-2-yl)isonicotinamide], the half-inhibitory concentration (IC50) in experiment [1] was 23 nM.

As to `COc1ccc(F)cc1-c1cnccc1C(=O)Nc1nnc([C@@H]2C[C@H]2c2nc3ccccc3n2C)s1` [Compound 4, 3-(5-fluoro-2-methoxyphenyl)-N-(5-((1R,2R)-2-(1-methyl-1H-benzo[d]imidazol-2-yl)cyclopropyl)-1,3,4-thiadiazol-2-yl)isonicotinamide], the IC50 in experiment [1] is 92 nM.

As for `COc1ccc(C#N)cc1-c1cnccc1C(=O)Nc1nnc(C#CC2CCC2)s1` [Compound 5], the IC50 in experiment [1] turned out to be 2.9 nM; in experiment [2], 1.5 nM.

`COc1ccc(C#N)cc1-c1cnccc1C(=O)Nc1nnc(C#CC2CC23CC3)s1` (stereo not drawn) [Compound 6, 3-(5-cyano-2-methoxyphenyl)-N-(5-(spiro[2.2]pentan-1-ylethynyl)-1,3,4-thiadiazol-2-yl)isonicotinamide]: the values for the IC50 in experiment [1] and in experiment [2] were 2 nM and 0.63 nM, respectively.

Consider `COc1ccc(C#N)cc1-c1cnccc1C(=O)Nc1nnc(C#CC2COC2)s1` [Compound 7, 3-(5-cyano-2-methoxyphenyl)-N-(5-(oxetan-3-ylethynyl)-1,3,4-thiadiazol-2-yl)isonicotinamide], for which the IC50 in experiment [1] worked out at 12 nM.

With `COc1ccc(F)cc1-c1cnccc1C(=O)Nc1nnc(C#Cc2cnn(CC#N)c2)s1` [Compound 8, N-(5-((1-(cyanomethyl)-1H-pyrazol-4-yl)ethynyl)-1,3,4-thiadiazol-2-yl)-3-(5-fluoro-2-methoxyphenyl)isonicotinamide], the IC50 in experiment [1] came out at 48 nM.

With `COc1ccc(C#N)cc1-c1cnccc1C(=O)Nc1nnc(C#CC2(N)CC2)s1` [Compound 9], in experiment [1], the IC50 was 33 nM.

Turning to `COc1ccc(F)cc1-c1cnccc1C(=O)Nc1nnc(C#Cc2cnc(C#N)c(OC)c2)s1` [Compound 10], the IC50 in experiment [1] worked out at 54 nM.

On to `COc1ccc(F)cc1-c1cnccc1C(=O)Nc1nnc(C#Cc2ccc3nccn3n2)s1` [Compound 11], for which the IC50 in experiment [1] was found to be 117 nM.

With `COc1ccc(C#N)cc1-c1cnccc1C(=O)Nc1nnc(C#CC2CC2)s1` [Compound 12, 3-(5-cyano-2-methoxyphenyl)-N-(5-(cyclopropylethynyl)-1,3,4-thiadiazol-2-yl)isonicotinamide], the IC50 in experiment [1] stood at 2 nM; in experiment [2], 3.5 nM.

As to `COc1c(F)cccc1-c1cnccc1C(=O)Nc1nnc(C#CC2CC2)s1` [Compound 13], the IC50 in experiment [1] was found to be 6.9 nM; in experiment [2], 4.2 nM.

As for `COc1ccc(F)cc1-c1cnccc1C(=O)Nc1nnc(C#Cc2cnc3cnccn23)s1` [Compound 14], in experiment [1], the IC50 amounted to 139 nM.

Take `COc1ccc(C#N)cc1-c1cn(C)c(=O)cc1C(=O)Nc1nnc(C2C[C@H]2c2ccc(C#N)cc2)s1` (stereo partly drawn) [Compound 15]: the IC50 in experiment [1] is 15 nM.

As to `COc1ccc(F)cc1-c1cn(C)c(=O)cc1C(=O)Nc1nnc(C#Cc2cc(C)[nH]n2)s1` [Compound 17], the results for the IC50 in experiment [1] and in experiment [2] were 5.4 nM and 3.2 nM, respectively.

For `COc1ccc(F)cc1-c1cn(C)c(=O)cc1C(=O)Nc1nnc(C#Cc2cnn(C3CCCNC3)c2)s1` (stereo not drawn) [Compound 18], the IC50 in experiment [1] worked out at 204 nM.

In the case of `COc1ccc(F)cc1-c1cn(C)c(=O)cc1C(=O)Nc1nnc(C#Cc2ccn(C)n2)s1` [Compound 19], the IC50 in experiment [1] worked out at 27 nM.

Turning to `COc1ccc(C#N)cc1-c1cn(C)c(=O)cc1C(=O)Nc1nnc(C#CC2CC2)s1` [Compound 20], the IC50 in experiment [1] is 21 nM.

Regarding `COc1ccc(F)cc1-c1cn(C)c(=O)cc1C(=O)Nc1nnc(C#CC2CC2)s1` [Compound 21], the IC50 in experiment [1] was determined as 12 nM.

Consider `COc1ccc(F)cc1-n1cncc1C(=O)Nc1nnc(C#CC2CC2)s1` [Compound 22], for which the IC50 in experiment [1] stood at 12 nM.

For the molecule `COc1ccc(C#N)cc1-n1cncc1C(=O)Nc1nnc(C#CC2CC2)s1` [Compound 23], the IC50 in experiment [1] is 134 nM.

As to `COc1ccc(C(F)(F)F)cc1-c1cnccc1C(=O)Nc1nnc(C#CC2CC2)s1` [Compound 24], the IC50 in experiment [1] is less than 1.5 nM; in experiment [2], 0.78 nM.

As for `COc1cnc(Cl)cc1-c1cnccc1C(=O)Nc1nnc(C#CC2CC2)s1` [Compound 25], the IC50 in experiment [1] was 1.5 nM; in experiment [2], 1.3 nM.

For the molecule `COc1cnc(Cl)cc1-c1cnccc1C(=O)Nc1nnc([C@@H]2C[C@H]2c2ccc(C#N)cc2)s1` [Compound 26, 2′-chloro-N-(5-((1R,2R)-2-(4-cyanophenyl)cyclopropyl)-1,3,4-thiadiazol-2-yl)-5′-methoxy-[3,4′-bipyridine]-4-carboxamide], the results for the IC50 in experiment [1] and in experiment [2] were 2.6 nM and 0.53 nM, respectively.

In experiment [2], `COc1cnc(C(F)F)cc1-c1cc(-n2cnc(C)c(C)c2=O)ncc1C(=O)Nc1nnc(C#CC2CC2)s1` [Compound 451] yielded an IC50 of less than 0.25 nM.

In turn, `COc1cnc(C(F)F)cc1-c1cc(-n2ncc(OC)c(Cl)c2=O)ncc1C(=O)Nc1nnc(C#CC2CC2)s1` [Compound 452] showed an IC50 in experiment [2] of less than 0.25 nM.

Take `COc1cnc(C(F)F)cc1-c1cc(-n2nccc(C)c2=O)ncc1C(=O)Nc1nnc(C#CC2CC2)s1` [Compound 453]: the IC50 in experiment [2] was less than 0.25 nM.

Regarding `COc1cnc(C(F)F)cc1-c1cc(-n2cc(N)c(C)cc2=O)ncc1C(=O)Nc1nnc(C#CC2CC2)s1` [Compound 454], 1.1 nM corresponded to half-maximal inhibition in experiment [2] (IC50).

On to `COc1cnc(C(F)F)cc1-c1cc(-n2cccc(Cl)c2=O)ncc1C(=O)Nc1nnc(C#CC2CC2)s1` [Compound 455], for which, in experiment [2], the IC50 was less than 0.25 nM.

With `COc1cnc(C(F)F)cc1-c1cc(-n2cccc(C(F)(F)F)c2=O)ncc1C(=O)Nc1nnc(C#CC2CC2)s1` [Compound 456], the IC50 in experiment [2] is less than 0.25 nM.

For `COc1cnc(C(F)F)cc1-c1cc(-c2ccn(C)n2)c(F)cc1C(=O)Nc1nnc(C#CC2CC2)s1` [Compound 457], the IC50 in experiment [2] stood at 0.37 nM.

For the molecule `COc1cnc(C(F)F)cc1-c1cc(-n2ccnc(C)c2=O)ncc1C(=O)Nc1nnc(C#CC2CC2)s1` [Compound 458], the IC50 in experiment [2] was 0.1 nM.

With `COc1cnc(C(F)F)cc1-c1cc(-n2ccc(Cl)cc2=O)ncc1C(=O)Nc1nnc(C#CC2CC2)s1` [Compound 459], in experiment [2], the IC50 is less than 0.25 nM.

The molecule `COc1cnc(C(F)F)cc1-c1cc(-n2c(F)cccc2=O)ncc1C(=O)Nc1nnc(C#CC2CC2)s1` [Compound 461] yielded an IC50 in experiment [2] of less than 0.25 nM.

In experiment [2], `COc1cnc(C(F)F)cc1-c1cc(-n2nc3c(cc2=O)CCC3)ncc1C(=O)Nc1nnc(C#CC2CC2)s1` [Compound 462] displayed an IC50 of less than 0.25 nM.

With `O=C(Nc1nnc(C#CC2CC2)s1)c1cnc(-n2ncccc2=O)cc1-c1cc(C(F)F)ncc1Cl` [Compound 463], in experiment [2], the IC50 is less than 0.25 nM.

In the case of `Cc1nnc(-n2cc(-c3cc(C(F)(F)F)ccc3Cl)c(C(=O)Nc3ncc(C#CC4CC4)s3)cc2=O)o1` [Compound 464], the IC50 in experiment [2] was less than 0.25 nM.

For `COc1cnc(C(F)F)cc1-c1cc(N2CCN(C)C3(CC3)C2=O)ncc1C(=O)Nc1ncc(C#CC2CC2)s1` [Compound 465], the IC50 in experiment [2] is 0.27 nM.

Molecule `COc1cnc(C(F)F)cc1-c1cc(-n2ccc(C)c(F)c2=O)ncc1C(=O)Nc1nnc(C#CC2CC2)s1` [Compound 466] displayed an IC50 in experiment [2] of less than 0.25 nM.

Consider `COc1cnc(C(F)F)cc1-c1cc(-n2ccc(C)c(C)c2=O)ncc1C(=O)Nc1nnc(C#CC2CC2)s1` [Compound 467], for which the IC50 in experiment [2] is less than 0.25 nM.

In turn, `COc1cnc(C(F)F)cc1-c1cc(N2CC(=O)N(C)C3(CC3)C2=O)ncc1C(=O)Nc1nnc(C#CC2CC2)s1` [Compound 469] had an IC50 in experiment [2] of less than 0.25 nM.

As for `Cc1cnn(-c2cc(-c3cc(C(F)F)ncc3Cl)c(C(=O)Nc3nnc(C#CC4CC4)s3)cn2)c(=O)c1` [Compound 470], half-maximal inhibition in experiment [2] (IC50) required 0.0492 nM.

`COc1cnc(C(F)F)cc1-c1cc(N2CC(C)(C)N(C)CC2=O)ncc1C(=O)Nc1nnc(C#CC2CC2)s1` [Compound 471] showed an IC50 in experiment [2] of 2.1 nM.
